According to patent publication US11046726B2, “Nucleotide analogues” (QIAGEN SCIENCES, LLC, priority 2015, dated 2021):

Assay: Cleavage experiments with a variety of cleavage agents, reaction mixtures analyzed by RP-HPLC (FIG. 77, 78A-78B)
Conditions: after 10 minutes of incubation with cleave reagent
Description: In addition to these a variety of suitable cleaving agents can be used such as Bis(2-mercaptoethyl)sulfone (BMS) and N,N′-dimethyl-N,N′-bis(mercaptoacetyl)hydrazine (DMH) (Singh et al., Bioorg. Chem., 22, 109-115 (1994). Reactions can be further catalyzed by inclusion of selenols (Singh et al. Anal Biochem. 1995 Nov. 20; 232(1):86-91 [18]). Borohydrides, such as sodium borohydrides can also be used for this purpose (Stahl et al., Anal. Chem., 1957, 29 (1), pp 151 155 [19]) as well as ascorbic acid (Nardai et al., J. Biol. Chem. 276, 8825-8828 (2001)). In addition, enzymatic methods for cleavage of disulfide bonds ae also well known such as disulfide and thioreductase and can be used with compounds of the present invention (Holmgren et. al., Methods in Enzymology, Volume 252, 1995, Pages 199-208 [21]).

| Compound | cleavage of linker and 3′-protective group by cleavage agent |
| --- | --- |
| OC(=S)CCC(O)=S [dithiosuccinic acid] | selective cleavage of 3′-O-protective group |
| O[C@H](CS)[C@H](O)CS (racemic) [DTT, dithiothreitol] | full cleavage of both linker and the 3′-protective groups |
| NCCS [cysteamine] | full cleavage of both linker and the 3′-protective groups |
| N[C@@H](CS)C(=O)O [L-cysteine] | full cleavage of both linker and the 3′-protective groups |
